Tests used:
[1] = tested on: YUMM1.7 melanoma; test: YUMM1.7 melanoma-engrafted mice treated with PPARβ selective agonist; format: in vivo
Method: Tumor engraftment and treatment of tumor-bearing mice. For tumor induction, 3-week-old Braf/Pten mice were treated with 4-hydroxytamoxifen on the skin surface as described before to induce tumor formation (Ho, P. C. et al. Cancer Res 74, 3205-3217 (2014)). For tumor engraftment, 5×10^4 cells YUMM1.7, B 16-OVA, or one million MC38 tumor cells were injected subcutaneously in 50 μl PBS. Tumors were measured every 2-3 days post tumor engraftment or indicated treatments and calculated. Tumor volume was calculated by volume=(length×width^2 )/2 for engrafted tumor or volume=(length×width×height) for inducible tumor. For in vivo treatment, Yumm 1.7-bearing mice were administrated every 3 days with either DMSO or PPARβ agonist (GW 501516) (1 mg per kg of body weight, Cayman Chemical) by intraperitoneal injection. For antibody-based treatment, tumor-bearing mice were treated with anti-PD-1 antibody (200 μg per injection, BioXcell, clone 29F.1A12) and anti-CD36 antibody (200 μg per injection, clone CRF D-2712 (Driscoll, W. S., et al. Circulation research 113, 52-61 (2013)) according to indicated combination by intraperitoneal injection. For antibody treatment in the Braf/Pten mouse model, four weeks after tumor induction, tumor-bearing Braf/Pten mice were treated with anti-CD36 antibody and/or anti-PD-1 antibody as indicated above for a period of 10 days. All experiments were conducted according to Swiss federal regulations.
Tumor digestion and cell isolation. Tumors were minced into small pieces in RPMI containing 2% FBS, 1% penicillin-streptomycin (p/s), DNase I (1 μg/ml, Sigma-Aldrich), and collagenase (0.5 mg/ml, Sigma-Aldrich) and kept for digestion for 40 min at 37° C., followed by the filtration with a 70 μm cell strainer. Filtered cells were incubated with ACK lysis buffer (Invitrogen) to lyse red blood cells and then washed with fluorescent activated cell sorter (FACS) buffer (phosphate-buffered saline with 2% fetal bovine serum and 2 mM EDTA). Tumor-infiltrating leukocytes were further enriched by percoll density gradient centrifugation (800×g, 30 min) at room temperature as described before (Cheng, W. C. et al. Nat Immunol 20, 206-217 (2019)).
Flow cytometry, cell sorting, and antibodies. Single cell suspensions were incubated with Fc receptor-blocking anti-CD16/32 (93) and anti-CD351 (TX61) antibodies (Biolegend) on ice for 10 min before staining. Cell suspensions were first stained with LIVE/DEAD® Fixable Violet Dead Cell Stain Kit (ThermoFisher) at 37° C. for 10 min. After washing, surface proteins were stained for 30 min at 4° C. […] Samples were analyzed on LSRII flow cytometers (BD Biosciences) and data were analyzed with FlowJo. […]

[2] = tested on: CD36-deficient Tregs; test: NAD/NADH measurement in CD36-deficient iTregs cultured in cancer cell-conditioned medium; format: cell-based, mice; settings: 48 h, vs DMSO
Method: Cancer cell-conditioned medium and iTreg culture. iTregs were generated by activating naïve CD4^+ T cells with Dynabeads conjugated with anti-CD3 and anti-CD28 mAbs (ThermoFisher) in RMPI media supplemented with 10% FBS, 10 ng/ml TGFβ and 50 U/ml IL-2 for three days. Then activated CD 4^+ T cells were maintained in RPMI media plus 10% FBS and 50 U/ml IL-2 for another 2 days. Differentiated iTregs were firstly sorted by using FACS cell sorter and then incubated in indicated culture condition for 48 h. The survival and NAD/NADH levels of iTregs were then determined by live/dead staining and ELISA kits, respectively. For NAD/NADH measurement in CD36-KO iTregs treated with PPARβ agonist, sorted iTregs were cultured in cancer cell-conditioned medium in the presence of DMSO or GW50156 for 48 h. […]
NAD and NADH measurement. The ratio of nicotinamide adenine dinucleotide (NAD) and nicotinamide adenine dinucleotide […] (NADH) was measured by using the commercial NAD/NADH Quantification Kit (Sigma-Aldrich MAK037). […]
decomposition. The samples were then transferred to a 96 wells plate for measuring the absorbance of 450 nm. […] The ratio of NAD/NADH in a sample could be determined by the following equation: ratio=(NADtotal−NADH)/NADH.

[3] = tested on: CD36-deficient Tregs; test: Viability of iTregs in cancer cell-conditioned medium with or without NR; format: cell-based, mice; settings: NR 400 μM, 72 hrs (FIG. 3i)
Method: Cancer cell-conditioned medium and iTreg culture. iTregs were generated by activating naïve CD4^+ T cells with Dynabeads conjugated with anti-CD3 and anti-CD28 mAbs (ThermoFisher) in RMPI media supplemented with 10% FBS, 10 ng/ml TGFβ and 50 U/ml IL-2 for three days. Then activated CD 4^+ T cells were maintained in RPMI media plus 10% FBS and 50 U/ml IL-2 for another 2 days. […] The survival and NAD/NADH levels of iTregs were then determined by live/dead staining and ELISA kits, respectively. For NAD/NADH measurement in CD36-KO iTregs treated with PPARβ agonist, sorted iTregs were cultured in cancer cell-conditioned medium in the presence of DMSO or GW50156 for 48 h. Control RPMI for iTreg in vitro treatment was prepared with RPMI 1640 medium (Biological Industries) supplementing with 2 mM Glucose, 10 mM Glutamine, 10% Dialyzed FBS, 0.1% β-ME, and indicated levels of lactic acids. YUMM1.7 cancer cell-conditioned medium was collected by incubating YUMM1.7 cells (70-80% density) with control RPMI described above for 18 h. Then, culture medium was collected and centrifuged at 2000 rpm for 15 min to remove debris and cancer cells as cancer cell-conditioned medium. YUMM1.7 cancer cell-conditioned medium collected as described above was treated with Cleanascite™ reagent (Biotech Support Group) prior to Treg culture at a volume ratio of 1:5 according to the manufacturer's instruction.

Cc1cc(SCc2sc(-c3ccc(C(F)(F)F)cc3)nc2C)ccc1OCC(=O)O [GW501516]
cleaved caspase-3 in intratumoral Tregs ([1]; Treg^CD36−/− mice (FIG. 4i)): lower levels
mitochondrial membrane potential of intratumoral Tregs (MitoTracker Deep Red staining) ([1]; Treg^CD36−/− mice (FIG. 4h)): increased mitochondrial membrane potentials
intratumoral Treg abundance (FoxP3+ Tregs among CD4+ tumor-infiltrating T lymphocytes) ([1]; Treg^CD36−/− mice, 1 mg per kg i.p. every 3 days, two weeks (FIG. 4g)): restored
tumor growth ([1]; Treg^CD36−/− mice, 1 mg per kg i.p. every 3 days, two weeks, vs control vehicle (FIG. 4f)): restored tumor growth
NAD/NADH ratio [2]: increased NAD/NADH ratios

NC(=O)c1ccc[n+]([C@@H]2O[C@H](CO)[C@@H](O)[C@H]2O)c1 [nicotinamide riboside]
viability of CD36-deficient Tregs exposed to cancer cell-conditioned medium [3]: partially rescued the viability

Reference: patent publication US20260146102A1, “METHODS FOR MODULATING REGULATORY T CELLS” (Universite de Lausanne, priority 2018, published 2026)
